From patent publication US20060018833A1, “Method and system for screening compounds for muscular and/or neurological activity in animals” (priority 2004, published 2006)

Assays:
teleosts = experiment: Electrically induced seizures in teleost fish, blocking by anticonvulsants; type: in vivo, teleost (Medaka); conditions: compound in the water, "(10-80 μM)" printed after phenytoin
Description: Consistent electrical-induced seizures are achieved by optimizing both maximum voltage achieved, overall power delivered during relatively constant current. Electrodes are placed in the wells from above just prior to commencement of the test.
Convulsions are produced by the placing a circular array of 6 stainless steal wire electrodes (around 100 μm in outside diameter) around the perimeter of a single well in a 48 well plate. The electrodes are insulated to the tips on the side of the electrodes that face the inside of the well. In this way the fish is less likely to contact the metal of the electrode that faces the well wall. A seizure is evoked by the application of a constant duration pulse of a constant current sine wave oscillating voltage field. The amount of current applied depends on the electrical impedance of the arrangement. In general around 30 mA of current at around 70 RMS volts is sufficient to produce a reliable seizure in a 2-3 week old Medaka fish. During the pulse the output is randomly scrambled to opposing pairs of the six electrodes via a high voltage MUX circuit. The electronics to produce the above stimulation are apparent to person skilled at the art.
The application of sufficient electrical current to the water containing a fish will evoke a behavioral response. However, at a specific range of current/voltage settings (30-110 V; 20 mA-0.1 mA) an animal will have a seizure, experience a post-ictal period of quiescence and recover. […] Application of a battery of classic anticonvulsants known to block seizure generation in animals will block the expression of seizures in teleost.

Medaka fish = experiment: Chemically (PTZ) induced seizure activity in Medaka fish, anticonvulsant screen (FIG. 5); type: in vivo
Procedure: One embodiment of the screen for anticonvulsant activity in the presence of a chemical stimulus includess placing a single or plurality of adult (1 month) fish into each well of a 12 well plate. This well contains 4 ml of pure tank water with a defined pH (7.0 can be between 6-8), hardness (90 ppm). The test compounds are then applied to the wells in 12 concentrations ranging from 10 μM to 10 mM. The compounds are diluted from standard DMSO stock solutions stored in other multiwell plates. Test compounds are added as either tank water diluted solutions or as DMSO concentrates. […] The compounds are added to wells after the optical clarity (transmittance) of the well water is determined. Following addition of the compounds to the wells a second transmittance measure is made to determine if the compound has dropped out of solution at any of the concentrations. […] Highly insoluble compounds are solublized in cyclodextrins or mixed with wet fish food, dried and applied at a known amount to wells containing a fish that was not fed for a day.
Plates containing soluble compounds are covered with plastic tops from the manufacturer and placed in an incubator set around 27 degrees centigrade and an oxygen rich atmosphere. […] Fish are examined by the operator for deaths and they are scored as such.
Testing is performed in a visible light darkened, sound dampened room upon a highly diffused infrared light box. […] Excess or erratic activity is automatically determined by a computer algorhythim during a 20 minute control period. […]
The image sequence collected following the administration is examined by a computer program which determines a number of factors about the activity of the fish including orientation, location, distance traveled, and cross sectional area of the fish's silhouette. […] Activity levels reaching specific thresholds and the type of activity (circular swimming and erratic darting) are scored along with periods of quiescence. […] The latency to first seizure and the magnitude and frequency of seizures are scored for each well. […]

zebrafish = experiment: Determining convulsive dose of convulsant added to well water (zebrafish); type: in vivo
Procedure: To establish the minimum seizure threshold dose (CD50) for convulsant agents 5 ml of tank water is placed a single well of a 12-well plate. […] When the animal has acclimated to the new conditions, a solution containing convulsant (e.g. a 20 mM solution of pentylenetetrazol (PTZ) in tank water) is added to the well at a rate of 0.1 ml per minute. The amount of solution being added is constant. The behavior of the fish is then monitored continuously during the rest period beginning with the addition of the convulsant. At the point which the animal has a convulsion the addition is stopped and the animal removed. […] This dose is considered the convulsive dose (>97%) for teleost.

Medaka = experiment: Determining convulsive dose of convulsant added to well water (Medaka); type: in vivo; conditions: 20 mM PTZ solution added at 0.1 ml per minute to 5 ml tank water
Procedure: To establish the minimum seizure threshold dose (CD50) for convulsant agents 5 ml of tank water is placed a single well of a 12-well plate. A single juvenile teleost is placed in the well and allowed to acclimate for a period of time in a darkened room. When the animal has acclimated to the new conditions, a solution containing convulsant (e.g. a 20 mM solution of pentylenetetrazol (PTZ) in tank water) is added to the well at a rate of 0.1 ml per minute. The amount of solution being added is constant. The behavior of the fish is then monitored continuously during the rest period beginning with the addition of the convulsant. At the point which the animal has a convulsion the addition is stopped and the animal removed. […] This dose is considered the convulsive dose (>97%) for teleost.

O=C1NC(=O)C(c2ccccc2)(c2ccccc2)N1 [phenytoin]
blocking seizure specific behavioral movements following electrical stimulation (teleosts): capable of blocking seizure specific behavioral movements

CCCC(CCC)C(=O)O [Valproate, valproic acid]
seizure in well with convulsant and anticonvulsant (Medaka fish; FIG. 5 lower right well, 6 mM PTZ and Valproate 5 mM): Only the fish in the lower left well has seizure | seizure in well with anticonvulsant only (Medaka fish; FIG. 5 upper right well, only valproate 5 mM, no convulsant): Only the fish in the lower left well has seizure

NC(=O)N1c2ccccc2C=Cc2ccccc21 [Carbamazepine]
blocking seizure specific behavioral movements following electrical stimulation (teleosts): capable of blocking seizure specific behavioral movements

NCC1(CC(=O)O)CCCCC1 [gabapentin]
blocking seizure specific behavioral movements following electrical stimulation (teleosts): capable of blocking seizure specific behavioral movements

C1CCc2nnnn2CC1 [PTZ, pentylenetetrazol]
seizure evoked, share of fish (zebrafish; adult zebrafish immersed in 5 mM PTZ, within 30 minutes of addition, 10 fish): 100% | terminal concentration at which the animal has a convulsion (minimum seizure threshold dose, CD50) (zebrafish; zebrafish, 20 mM PTZ solution added at 0.1 ml per minute to 5 ml tank water): around 6 mM | seizure in well with convulsant only (Medaka fish; FIG. 5 lower left well, 6 mM PTZ): has seizure | terminal concentration at which the animal has a convulsion (minimum seizure threshold dose, CD50) (Medaka): 10 mM

NC(=O)OCC(COC(N)=O)c1ccccc1 [felbamate]
blocking seizure specific behavioral movements following electrical stimulation (teleosts): capable of blocking seizure specific behavioral movements
